Data on three molecules can be found in patent US12691111B2, “SETD2 inhibitors and related methods and uses, including combination therapies” (EPIZYME, INC., priority 2020, dated 2026).

Assay [1] has as its system SUDHL-6. In words: Pre-treatment model combination study (4 days pre-treatment, 3 days co-treatment), CellTiter-Glo, Loewe Volume. To be noted: SUDHL-6 diffuse large B-cell lymphoma cells, 4 days Cpd. No. 15 pre-treatment then 3 days co-treatment. It is filed as cell-based. On the procedure:
(§1) Diffuse large B-cell lymphoma cells were seeded into flasks and pre-treated with several concentrations of Cpd. No. 15 or DMSO. Cells were then split adjusted to initial density, replated and co-treated Cpd. No. 15 and a second agent of interest using the HP D300 digital dispenser (Tecan Group, Mannedorf, Switzerland) in tissue culture treated solid white 384-well plates for additional 3 days. […] After 3 days cotreatment, cell viability was measured via ATP content using CellTiter-Glo® (Promega, Madison, WI) and luminescence was detected using a SpectraMax M5 microplate reader (Molecular Devices, Sunnyvale, CA).
(§2) Diffuse large B-cell lymphoma (DLBCL) cell line cultures in log-linear growth rate were treated with combinations of Cpd. No. 15 and combination partners according to a pre-treatment model. Cells were seeded first into 8 flasks and pre-treated with 7 different concentrations of Cpd. […] Cells were harvested from each flask and re-seeded onto the corresponding 384-well plate with the same concentration of Cpd. No. 15. and 9 concentrations of its combination partner in triplicate wells. The final concentration of DMSO (vehicle) in the assay was 0.1% v/v. Fifty microliters of cell line(s) suspension were directly dispensed to the assay-ready plates with an automated multichannel dispenser on to 384-well assay-ready plates. Assay plates were incubated for three days in a humidified atmosphere of 5% CO2 at 37° C. Quantification of the effect of single agents or combinations on cell viability was performed through measurement of cellular adenosine triphosphate (ATP) using CellTiter-Glo® (Promega, Madison, WI). Luminescence was detected using a SpectraMax M5 microplate reader (Molecular Devices, Sunnyvale, CA). Concentration response plots were generated in GraphPad Prism version 8.0 for Windows, GraphPad Software, (La Jolla, CA) and curves fitted to a four-parameter logistic model with variable slope. Percent of inhibition was calculated at each treatment concentration.
(Cellular ATP, detected with luciferase, serves as a proxy for viable cell number.)

Assay [2] concerns WSUDLCL2. The assay is described as above. To be noted: WSUDLCL2 diffuse large B-cell lymphoma cells, 4 days Cpd. No. 15 pre-treatment then 3 days co-treatment. It counts as cell-based. As for the experimental part:
as §1, §2

The subject of assay [3] is SUDHL-2. The description is as above. It counts as cell-based. The following applies: SUDHL-2 diffuse large B-cell lymphoma cells, 4 days Cpd. No. 15 pre-treatment then 3 days co-treatment. On the procedure: as §1, §2
Assay [4] concerns KARPAS422. The assay is described as above. It is filed as cell-based. To be noted: KARPAS422 diffuse large B-cell lymphoma cells, 4 days Cpd. No. 15 pre-treatment then 3 days co-treatment. On the procedure: as §1, §2
The test system of assay [5] is MM1.S. As to the kind of experiment: 7-day co-treatment combination study, CellTiter-Glo, Loewe Volume. It is filed as cell-based. The following applies: MM1.S multiple myeloma cells, 7-day co-treatment with Cpd. No. 15. As for the experimental part: (§3) Multiple myeloma (MM) and mantle cell lymphoma (MCL) Cell line cultures in log-linear growth rate were treated with combinations of Cpd. No. 15 and combination partners according to a co-treatment model. […] No. 15 and the combination partner. […] Each combination was tested in quadruplicate wells. The final concentration of DMSO (vehicle) in the assay was 0.1% v/v. Fifty microliters of cell line suspension were directly dispensed to the assay-ready plates with an automated multichannel dispenser on to 384-well assay-ready plates. Assay plates were incubated for seven days in a humidified atmosphere of 5% CO2 at 37° C. Quantification of the effect of single agents or combinations on cell viability was performed through measurement of cellular adenosine triphosphate (ATP) using a CellTiter-Glo® (Promega, MadisonWIs.) Luminescent Cell Viability Assay. Luminescence was detected using a SpectraMax M5 microplate reader (Molecular Devices, Sunnyvale, CA). Concentration response plots were generated in GraphPad Prism version 7.0 for Windows, GraphPad Software, (La Jolla, CA) and curves fitted to a four-parameter logistic model with variable slope. Percent of inhibition was calculated at each treatment concentration.
(§4) The results of these combinations are summarized in Tables A and B (multiple myeloma cell lines), and Tables C and D (mantle cell lymphoma cell lines).

The test system of assay [6] is REC1. The description is as above. The following applies: REC1 mantle cell lymphoma cells, 7-day co-treatment with Cpd. No. 15. It counts as cell-based. As for the experimental part: as §3, §4
Assay [7] relates to RPMI-8226. Described as above. It is filed as cell-based. To be noted: RPMI-8226 multiple myeloma cells, 7-day co-treatment with Cpd. No. 15. On the procedure: as §3, §4
Assay [8] relates to JVM2. The description is as above. To be noted: JVM2 mantle cell lymphoma cells, 7-day co-treatment with Cpd. No. 15. It is filed as cell-based. On the procedure: as §3, §4
In assay [9] the test system is Z138. Described as above. It counts as cell-based. To be noted: Z138 mantle cell lymphoma cells, 7-day co-treatment with Cpd. No. 15. As for the experimental part: as §3, §4
Assay [10] relates to L363. The assay is described as above. It is filed as cell-based. To be noted: L363 multiple myeloma cells, 7-day co-treatment with Cpd. No. 15. As for the experimental part: as §3, §4
For assay [11], the system named is JEKO1. The assay is described as above. It counts as cell-based. The following applies: JEKO1 mantle cell lymphoma cells, 7-day co-treatment with Cpd. No. 15. As for the experimental part: as §3, §4
For assay [12], the system named is GRANTA519. Described as above. It is filed as cell-based. To be noted: GRANTA519 mantle cell lymphoma cells, 7-day co-treatment with Cpd. No. 15. On the procedure:
as §3, §4

Assay [13] concerns MINO. The assay is described as above. It is filed as cell-based. To be noted: MINO mantle cell lymphoma cells, 7-day co-treatment with Cpd. No. 15. On the procedure:
as §3, §4

The test system of assay [14] is MAVER1. Described as above. The following applies: MAVER1 mantle cell lymphoma cells, 7-day co-treatment with Cpd. No. 15. It is filed as cell-based. As for the experimental part: as §3, §4
Assay [15] relates to KMS34. The assay is described as above. It is filed as cell-based. The following applies: KMS34 multiple myeloma cells, 7-day co-treatment with Cpd. No. 15. On the procedure: as §3, §4
The test system of assay [16] is KMS-28-BM. Described as above. It is filed as cell-based. The following applies: KMS-28-BM multiple myeloma cells, 7-day co-treatment with Cpd. No. 15. As for the experimental part: as §3, §4
Assay [17] relates to NCI-H929. The description is as above. It is filed as cell-based. To be noted: NCI-H929 multiple myeloma cells, 7-day co-treatment with Cpd. No. 15. On the procedure:
as §3, §4

The test system of assay [18] is KMS-11. The description is as above. To be noted: KMS-11 multiple myeloma cells, 7-day co-treatment with Cpd. No. 15.

For the molecule `CCN(c1cc(-c2ccc(CN3CCOCC3)cc2)cc(C(=O)NCc2c(C)cc(C)[nH]c2=O)c1C)C1CCOCC1` [Tazemetostat, tazemetostat], the “Combination effect (Loewe Volume class) of Cpd. No. 15 with combination partner” value is “No effect” in assay [1]; “Additivity (between 1 and −1: additivity)” in [2]; “Additivity (between 1 and −1: additivity)” in [3]; “No effect” in assay [4]; “Synergy (VLoewe>1: synergy)” in assay [5]; “Additivity (between 1 and −1: additivity)” in assay [6]. Further, the “Combination effect (Loewe Volume class) of Cpd. No. 15 with combination partner” value was “Additivity (between 1 and −1: additivity)” in assay [7]; “Additivity (between 1 and −1: additivity)” in assay [8]; “No Effect” in assay [9]; “Synergy (VLoewe>1: synergy)” in assay [10]; “No Effect” in assay [11]; “No Effect” in [12]. The “Combination effect (Loewe Volume class) of Cpd. No. 15 with combination partner” value in assay [13] is “No Effect”; in [14] it was “Additivity (between 1 and −1: additivity)”; in [15] it was “Synergy (VLoewe>1: synergy)”.

Turning to `CC1(C)CCC(CN2CCN(c3ccc(C(=O)NS(=O)(=O)c4ccc(NCC5CCOCC5)c([N+](=O)[O-])c4)c(Oc4cnc5[nH]ccc5c4)c3)CC2)=C(c2ccc(Cl)cc2)C1` [Venetoclax, venetoclax], the “Combination effect (Loewe Volume class) of Cpd. No. 15 with combination partner” value in [1] was “Synergy (VLoewe>1: synergy)”; in [2] it was “Synergy (VLoewe>1: synergy)”; in assay [3], “Synergy (VLoewe>1: synergy)”; in assay [4] it was “No effect”; in [5], “Additivity (between 1 and −1: additivity)”; in [16], “Additivity (between 1 and −1: additivity)”. Besides, the “Combination effect (Loewe Volume class) of Cpd. No. 15 with combination partner” value in assay [6] is “Additivity (between 1 and −1: additivity)”; in assay [7], “Additivity (between 1 and −1: additivity)”; in [8] it was “Synergy (VLoewe>1: synergy)”; in [17], “Synergy (VLoewe>1: synergy)”; in [9] it was “Synergy (VLoewe>1: synergy)”; in [10], “Additivity (between 1 and −1: additivity)”. Also, the “Combination effect (Loewe Volume class) of Cpd. No. 15 with combination partner” value in assay [11] was “Additivity (between 1 and −1: additivity)”; in assay [12], “Synergy (VLoewe>1: synergy)”; in assay [13] it was “Additivity (between 1 and −1: additivity)”; in assay [14], “Synergy (VLoewe>1: synergy)”; in assay [15], “Additivity (between 1 and −1: additivity)”; in assay [18], “Synergy (VLoewe>1: synergy)”.

`Nc1cccc2c1CN(C1CCC(=O)NC1=O)C2=O` (centres unmarked) [Lenalidomide, lenalidomide]: the “Combination effect (Loewe Volume class) of Cpd. No. 15 with combination partner” value was “No effect” in assay [1]; “Additivity (between 1 and −1: additivity)” in assay [2]; “Additivity (between 1 and −1: additivity)” in assay [3]; “No effect” in assay [4]; “Additivity (between 1 and −1: additivity)” in assay [5]; “No Effect” in assay [16]. Moreover, the “Combination effect (Loewe Volume class) of Cpd. No. 15 with combination partner” value in assay [6] was “Additivity (between 1 and −1: additivity)”; in assay [7], “Synergy (VLoewe>1: synergy)”; in assay [8], “Additivity (between 1 and −1: additivity)”; in [9] it was “Synergy (VLoewe>1: synergy)”; in [10], “Additivity (between 1 and −1: additivity)”; in assay [11] it was “Synergy (VLoewe>1: synergy)”. For the same molecule, the “Combination effect (Loewe Volume class) of Cpd. No. 15 with combination partner” value in [12] is “Additivity (between 1 and −1: additivity)”; in [13] it was “Additivity (between 1 and −1: additivity)”; in [14], “Synergy (VLoewe>1: synergy)”; in assay [15], “Synergy (VLoewe>1: synergy)”; in assay [18], “Synergy (VLoewe>1: synergy)”.
